The values below come from patent publication US9844546B2, “Antibody against human HIF hydroxylase” (OXFORD UNIVERSITY INNOVATION LIMITED, priority 2001, dated 2017).

One assay deals with T1, HIF-1α/pVHL interaction (Homo sapiens, UniProt P40337).
T1 construct: made in house; host or cells: TNT rabbit reticulocyte lysate (Promega), in vitro transcription/translation
The assay can be described thus: Polypeptide blocking assay of HIF-1α and pVHL.HA IVTT mixture, anti-HA immunoprecipitation. It counts as binding. The method, then:
Further studies were performed using synthetic polypeptides as inhibitors of the HIF-1α/pVHL interaction (23). […] Results for a series of polypeptides derived from this domain are summarized in FIG. 1B and implicate a similar minimal interaction domain. […] This polypeptide comprises HIF-1α polypeptide residues 556 to 574 and its ability to block binding following exposure to a variety of direct oxidation conditions was assessed.
We synthesized a polypeptide (HIF-1α residues 556-574), containing a trans-4-hydroxy-S-proline residue at position 564 (19:Pro564Hyp), since the trans-4-hydroxylation is the commonest enzymatic proline oxidation (25). A polypeptide blocking assay was carried out using the 19:Pro564Hyp modified polypeptide and, as a control, the unmodified polypeptide without the trans-4-hydroxylation (19:WT). The 19:WT polypeptide was either incubated with cell extract before the binding assay or was untreated. The 19:Pro564Hyp polypeptide was added to a mixture of HIF-1α and pVHL-HA IVTTs at a concentration of 1, 0.25, 0.05 or 0.01 μM and the cell extract treated or untreated 19:WT polypeptide at a concentration of 0.5 μM. Interaction of HIF-1α with pVHL was then assayed by anti-HA immunoprecipitation. […] A pVHL capture assay was then carried out using biotinylated synthetic polypeptides. The same polypeptides, 19:Pro564Hyp and 19:WT were assessed for the ability to capture wild type or mutant (Pro86His) pVHL. […] In both cases capture was specific for wild type, as opposed to mutant, pVHL.
• 1. G. L. Semenza, Genes Dev 14, 1983-91. (2000). • 2. N. V. Iyer, et al., Genes Dev. 12, 149-162 (1997). • 3. E. Maltepe, J. V. Schmidt, D. Baunoch, C. A. Bradfield, M. C. Simon, Nature 386, 403-407 (1997). • 4. G. L. Wang, B.-H. Jiang, E. A. Rue, G. L. Semenza, Proc. Natl. Acad. Sci. USA 92, 5510-5514 (1995). • 5. S. Salceda, J. Caro, J. Biol. Chem. 272, 22642-22647 (1997). • 6. L. E. Huang, J. Gu, M. Schau, H. F. Bunn, Proc. Natl. Acad. Sci. USA 95, 7987-7992 (1998). • 7. M. S. Wiesener, et al., Blood 92, 2260-2268 (1998). • 8. P. H. Maxwell, et al., Nature 399, 271-275 (1999). • 9. K. Iwai, et al., Proc. Natl. Acad. Sci. USA 96, 12436-12441 (1999). • 10. J. Lisztwan, G. Imbert, C. Wirbelauer, M. Gstaiger, W. Krek, Genes Dev 13, 1822-33 (1999). • 11. M. E. Cockman, et al., J Biol Chem (2000). • 12. M. Ohh, et al., Nat Cell Biol 2, 423-7. (2000). • 13. T. Kamura, et al., Proc Natl Acad Sci USA 97, 10430-5. (2000). • 14. K. Tanimoto, Y. Makino, T. Pereira, L. Poellinger, Embo J 19, 4298-309. (2000). • 15. M. A. Goldberg, S. P. Dunning, H. F. Bunn, Science 242, 1412-1415 (1988). • 16. G. L. Wang, G. L. Semenza, Blood 82, 3610-3615 (1993). • 17. G. L. Semenza, Cell 98, 281-284 (1999). • 18. Hypoxia (<0.1% oxygen) was obtained in a workstation with O2, CO2 and temperature control (Ruskinn Technologies, Leeds, UK). For hypoxic harvest, buffers were preincubated in the chamber overnight. RCC4-VHL.HA, labelling conditions and co-immunoprecipitation assays have been described previously (11); in the current study 12.5 μM MG132 was used for proteasomal inhibition. For standard harvest, the cells were removed from the chamber after hypoxic exposure, prior to cell lysis. Co-immunoprecipitation assays on all lysates were performed at 4° C. under ambient oxygen conditions. […] When programming in hypoxia, reaction mix was preincubated in the workstation for 10 minutes before addition of the DNA template. […]

In assay [1] the test system is collagen prolyl-hydroxylase (CPH). The following applies: cited from earlier work.
The next assay concerns HIF. Kind of assay: Induction of HIF in tissue culture by esterified equivalents. Type of assay: cell-based. The following applies: In-vivo esterified equivalent.
The test system of assay [2] is HIF hydroxylase (HPH activity). Kind of assay: HIF hydroxylase (HPH) inhibition, statements of the description. It counts as biochemical.
The subject of assay [3] is HIF-α prolyl-hydroxylase (HIF-PH) of cell extract. The assay can be described thus: Modifying activity (HIF-PH) of cell extract on HIF substrate (Gal/HIF-1α549-582/VP16 or 19:WT), pVHL capture assay. It counts as biochemical, mammalian. The following applies: for Disruption of HIF-VHL interaction: In-vitro inhibitor; for pVHL binding after treatment of Gal-Hif549-582-VP16 with cell extract in the presence of inhibitor: SDS-PAGE and autoradiography; for effect of pretreatment of extracts on modifying activity: clotrimazole 10 μM, methyl-viologen 1 mM, NADase 20 mU/ml. The procedure:
The unlabelled HIF-1α substrate was immunopurified on beads, washed, and aliquots incubated under different test conditions in buffer or cell extract. After further washing, the beads were assayed for ability to interact with 35-S labelled pVHL IVTT (21) which was then visualised by fluorography.
The capture of labelled pVHL by different HIF substrates was monitored after exposure to various test conditions.
We went on to test a series of 2-oxoglutarate analogues which act as competitive inhibitors of this class of enzyme (29) for ability to inhibit HIF-PH as assessed by the ability of cell extracts to modify either HIF polypeptide (19:WT) or a HIF fusion protein (Gal/HIF-1α549-582/VP16) so as to promote pVHL capture. […] In one such experiment the effect of N-oxalylglycine on pVHL capture by a biotinylated HIF polypeptides as substrate was monitored. The WT:19 and 19:Pro564Hyp polypeptides described above were used as substrates. […] The effect of dimethyl-oxalyglycine on HIF-1α expression was also studied. HIF-1α immunoblot analysis of extracts of Hep3B and U2OS cells exposed to dimethyl-oxalylgylcine (0, 0.1 or 1.0 mM) for 6 hours was carried out. […]

T1 sequence (P40337 whole entry): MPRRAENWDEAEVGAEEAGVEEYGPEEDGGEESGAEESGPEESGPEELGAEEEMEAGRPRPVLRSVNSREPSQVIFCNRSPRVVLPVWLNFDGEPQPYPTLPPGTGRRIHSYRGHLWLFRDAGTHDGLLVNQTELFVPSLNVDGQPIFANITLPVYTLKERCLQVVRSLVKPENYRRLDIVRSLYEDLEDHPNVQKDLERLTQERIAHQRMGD

Consider “34 residue sequence encompassing amino acids 549-582: synthetic polypeptide, HIF-1α residues 549-582”, for which the “blocking of HIF-1α/pVHL interaction by polypeptide after exposure to cell extract” value with HIF-1α/pVHL interaction (cell extract supplemented with Fe(II)) is on record as “blocking activity was strikingly induced”. In the assay with HIF-1α/pVHL interaction (untreated polypeptide), the “blocking of HIF-1α/pVHL interaction by polypeptide not exposed to cell extract” value is “unable to block interaction”. As to `CC(NC(=O)C(=O)O)C(=O)O` (racemic) [(RS)-N-oxaloalanine], in assay [1], the “inhibition of CPH” value is on record as “poor inhibitor”. As to `CCOC(=O)c1ccnc(C(=O)OCC)c1` [2, 4 diethylpyridine dicarboxylate, 2,4-diethylpyridine dicarboxylate], in the assay with HIF, the “Induction of HIF in tissue culture” value is listed as “No”. The “inhibition of CPH” value in assay [1] was “known CPH inhibitor”. Further, the “inhibition of HIF hydroxylase / HPH” value in assay [2] was “found not to inhibit HPH”. On to `O=C(O)c1ccnc(C(=O)O)c1` [2, 4 pyridine dicarboxylic acid], for which the “Disruption of HIF-VHL interaction” value in assay [3] is “Yes”.

`CCOC(=O)c1ccc(C(=O)OCC)nc1` [2, 5 diethylpyridine dicarboxylate]: the “Induction of HIF in tissue culture” value with HIF is given as “No”. Still for that read-out and setting: as for `CCOC(=O)c1cccc(C(=O)OCC)n1` [2, 6 diethylpyridine dicarboxylate], the entry is “No”. `CC(C)[C@H](NC(=O)C(=O)O)C(=O)O` [(S)-oxalovaline]: the “inhibition of HIF hydroxylase / HPH” value in assay [2] is reported as “little or no activity”.

In the case of `COC(=O)CNC(=S)C(=O)OC` [Is1], the “pVHL binding after treatment of Gal-Hif549-582-VP16 with cell extract in the presence of inhibitor” value in assay [3] is on record as “reduced pVHL binding”. Still for that read-out and setting: under `O=C(O)CNC(=S)C(=O)O` [Is3] stands “reduced pVHL binding”; under `COCCNC(=O)c1ccncc1C(=O)NCCOC` [Is8], “reduced pVHL binding”.

`COC(=O)C(=O)NC(C)C(=O)OC` [Methylmethoxalyl-D/L-alanine]: in the assay on HIF, the “Induction of HIF in tissue culture” value was “No”. Regarding `C[C@@H](NC(=O)C(=O)O)C(=O)O` [N-oxalyl-2R-alanine], the “inhibition of modifying activity of cell extract on 19:WT (pVHL capture)” value in assay [3] (N-oxalylglycine 0.2-1 mM, overcome by 5 mM 2-oxoglutarate) is “not”. Moreover, the “inhibition of HIF hydroxylase / HPH” value in assay [2] is “also an inhibitor”. Regarding `CC(C)[C@H](NC(=O)C(=O)O)C(=O)O` [NK80], the “Disruption of HIF-VHL interaction” value in assay [3] is “No”.

Regarding `C[C@H](NC(=O)C(=O)O)C(=O)O` [NK81, oxalyl L-alanine], in assay [3], the “Disruption of HIF-VHL interaction” value is “Yes”. Take `C[C@@H](NC(=O)C(=O)O)C(=O)O` [NK82, oxalyl D-alanine]: the “Disruption of HIF-VHL interaction” value in assay [3] was “No”. As to `O=C(O)CNC(=O)C(=O)O` [NK87, oxalylglycine], in assay [3], the “Disruption of HIF-VHL interaction” value is listed as “Yes” and the “pVHL binding after treatment of Gal-Hif549-582-VP16 with cell extract in the presence of inhibitor” value is recorded as “reduced binding of pVHL”. The “pVHL binding after treatment with cell extract in the presence of inhibitor and additional 2-oxoglutarate” value in assay [3] (plus additional 2-oxoglutarate) was “strong binding”. Take `O=C(NO)c1ccccc1` [benzohydroxamic acid]: the “pVHL binding after treatment of Gal-Hif549-582-VP16 with cell extract in the presence of inhibitor” value in assay [3] is reported as “reduced pVHL binding”. Take `Clc1ccccc1C(c1ccccc1)(c1ccccc1)n1ccnc1` [clotrimazole, reference compound]: the “effect of pretreatment of extracts on modifying activity” value in assay [3] is listed as “did not significantly affect activity”. With `CCOC(=O)c1ccc(O)c(O)c1` [ethyl dihydroxybenzoate], the “pVHL binding after treatment of Gal-Hif549-582-VP16 with cell extract in the presence of inhibitor” value in assay [3] is reported as “reduced pVHL binding”. Take `N[C@@H](CCC(=O)N[C@@H](CS)C(=O)NCC(=O)O)C(=O)O` [glutathione, gamma-glutamyl-cysteinyl-glycine]: the “inhibition of HIF hydroxylase / HPH” value in assay [2] is on record as “inhibitors of HPH”. With `C[n+]1ccc(-c2cc[n+](C)cc2)cc1` [methyl-viologen, reference compound], the “effect of pretreatment of extracts on modifying activity” value in assay [3] is reported as “did not significantly affect activity”.
